Source: patent US11214803B2, “Modulators of YAP1 expression” (Ionis Pharmaceuticals, Inc., priority 2019, dated 2022)
Strand notation (5' to 3'): a small letter for the sugar, then the base; units joined by * are phosphorothioate-linked, units joined directly phosphodiester-linked; [ ] holds rarer units or linkages, { } end groups; capitals alone tell only the bases. e = 2'-O-(2-methoxyethyl) (MOE); k = constrained ethyl (cEt); [5mC] = 5-methylcytosine; d = 2'-deoxy (DNA); m = 2'-O-methyl

Tested on: Yap1 mRNA
Test: Antisense inhibition of human Yap1 in SNU-449 cells by modified oligonucleotides, single dose (Example 5, RTS36584)
Type: cell-based
Procedure, shortened: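 Each modified oligonucleotide is applied by free uptake to SNU-449 cultures at 2,000 nM, and total RNA is harvested around 48 h later. Yap1 transcript, quantified with the RTS36584 set and corrected for RIBOGREEN RNA content, is given as % UTC. Asterisks mark sequences overlapping the amplicon.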

[1] = Table 45, Yap1 mRNA as percent of untreated control, SNU-449 cells, single dose
[2] = Yap1 mRNA, percent of untreated control, modified oligonucleotides targeting SEQ ID NO: 1 and 2, Table 47
[3] = Table 48, Yap1 mRNA level relative to untreated control, modified oligonucleotides targeting SEQ ID NO.: 1 and 2
[4] = Table 52, Yap1 mRNA, modified oligonucleotides targeting SEQ ID NO: 1 and 2
[5] = Table 44 experiment, SNU-449 cells, 10,000 cells per well, free uptake, 2,000 nM, approximately 48 hours, RTS36584, Yap1 mRNA normalized to RIBOGREEN, relative to untreated control cells
[6] = Table 41, SNU-449 cells, 10,000 cells per well, free uptake, 2,000 nM modified oligonucleotide, approximately 48 hours, RTS36584, normalized to RIBOGREEN, Yap1 mRNA relative to untreated control cells
[7] = Table 43 experiment, SNU-449 cells, 10,000 cells per well, free uptake, 2,000 nM, approximately 48 hours, RTS36584, Yap1 mRNA normalized to RIBOGREEN, relative to untreated control cells
[8] = Table 51, Yap1 mRNA remaining as percent of untreated control (UT), SNU-449 cells, single dose
[9] = Table 46, Yap1 mRNA as percent of untreated control, SNU-449 cells, single dose
[10] = Table 50, Yap1 mRNA remaining as percent of untreated control (UT), SNU-449 cells, single dose

Substance: 1198897 (kA*kT*dG*dG*dA*dA*dA*dT*dT*dG*dT*k[5mC]*dT*k[5mC]*dA*kT; antisense) [Compound 1198897]
- YAP1 (% UTC) [1]: 61 % UTC

Substance: 1009327 (kA*kT*kA*dT*dT*dA*dG*dA*dG*dT*dA*dT*dG*kT*kG*kG; antisense) [Compound 1009327]
- YAP1 (% UT) [2]: 27 % UT

Substance: 1198310 (kA*k[5mC]*kT*dT*dT*dT*dA*d[5mC]*dA*dT*dT*dA*kG*eG*kA*eA; antisense) [Compound 1198310]
- YAP1 (% UT) [3]: 28 % UT

Substance: 1197192 (antisense kA*kT*kA*dG*dT*dG*d[5mC]*dT*dT*dT*dG*dG*dA*kA*kG*kA) [Compound 1197192]
- YAP1 (% UT) [2]: 39 % UT

Substance: 1200829 (kA*kG*kG*dA*dT*mG*d[5mC]*dA*dT*dG*dG*dT*dT*kT*kT*kT; antisense) [Compound 1200829]
- YAP1 (% UT) [4]: 49 % UT

Substance: 1198528 (kT*kA*dA*dA*dG*dT*dG*dT*dA*dT*dG*eT*k[5mC]*eA*kG*eA; antisense) [Compound 1198528]
- YAP1 (% UTC) [5]: 14 % UTC

Substance: 1198661 (antisense kT*kT*dG*dG*dA*dA*dG*dA*dT*d[5mC]*dT*dG*kA*eA*kA*e[5mC]) [Compound 1198661]
- YAP1 (% UTC) [6]: 111 % UTC

Substance: 1198964 (kT*kT*dT*dA*dA*dA*dG*dT*dG*dT*dA*kT*dG*kT*d[5mC]*kA; antisense) [Compound 1198964]
- YAP1 (% UTC) [1]: 59 % UTC

Substance: 1198467 (antisense kT*kA*dG*dA*dG*dT*dA*dT*dG*dT*dG*eG*k[5mC]*eA*kA*eT) [Compound 1198467]
- YAP1 (% UTC) [7]: 27 % UTC

Substance: 1198790 (antisense kT*eA*kA*dA*dG*dT*dG*dT*dA*dT*dG*dT*e[5mC]*eA*kG*kA) [Compound 1198790]
- YAP1 (% UTC) [6]: 27 % UTC

Substance: 1200856 (kT*kG*kT*dA*dT*mG*dT*d[5mC]*dA*dG*dA*dA*dG*kA*kG*kT; antisense) [Compound 1200856]
- YAP1 (% UT) [4]: 29 % UT

Substance: 1198252 (k[5mC]*kT*d[5mC]*dT*dT*dA*dT*dA*dT*dG*dG*eT*eT*eT*kT*kG; antisense) [Compound 1198252]
- YAP1 (% UTC) [7]: 26 % UTC

Substance: 1197317 (kA*kG*kA*d[5mC]*mU*dA*dA*dG*dT*dA*dA*dG*dG*kT*kT*kT; antisense) [Compound 1197317]
- YAP1 (% UT) [8]: 78 % UT

Substance: 1198219 (kG*kA*dG*dG*dT*dA*dT*dA*dA*d[5mC]*dT*eG*eG*eG*k[5mC]*kA; antisense) [Compound 1198219]
- YAP1 (% UTC) [7]: 22 % UTC

Substance: 1198495 (antisense kA*kG*dT*dG*d[5mC]*dT*dT*dT*dG*dG*dA*eA*kG*eA*kT*e[5mC]) [Compound 1198495]
- YAP1 (% UTC) [5]: 22 % UTC

Substance: 1198815 (antisense kT*kA*dG*dA*dG*dT*dA*dT*dG*dT*dG*kG*e[5mC]*kA*eA*kT) [Compound 1198815]
- YAP1 (% UT) [9]: 24 % UT

Substance: 1198587 (antisense kG*kA*kT*dT*dT*dA*dG*dG*dA*dT*dG*d[5mC]*kA*kT*kG*eG) [Compound 1198587]
- YAP1 (% UT) [10]: 41 % UT

Substance: 1197269 (kT*kA*kA*dA*mG*dT*dG*dT*dA*dT*dG*dT*d[5mC]*kA*kG*kA) [Compound 1197269]
- YAP1 (% UT) [8]: 3 % UT

Substance: 1198288 (kG*kA*kA*dA*dT*dT*dG*dT*d[5mC]*dT*d[5mC]*dA*kT*eG*k[5mC]*e[5mC]; antisense) [Compound 1198288]
- YAP1 (% UT) [3]: 10 % UT

Substance: 1198451 (k[5mC]*dT*dA*dA*dG*dT*dA*dA*dG*dG*dT*kT*eT*k[5mC]*e[5mC]*k[5mC]; antisense) [Compound 1198451]
- YAP1 (% UTC) (Table 39, SNU-449 cells, 10,000 cells per well, free uptake, 2,000 nM oligonucleotide, approx. 48 hours, RTS36584, normalized to RIBOGREEN, Yap1 mRNA relative to untreated control): 48 % UTC

Substance: 1198331 (k[5mC]*kA*kG*dA*dT*dT*dT*dA*dG*dG*dA*dT*kG*e[5mC]*kA*eT; antisense) [Compound 1198331]
- YAP1 (% UT) [3]: 26 % UT

Substance: 1198826 (kA*kA*d[5mC]*dA*d[5mC]*dT*dG*dA*dG*dG*dT*kA*eT*kA*eA*k[5mC]; antisense) [Compound 1198826]
- YAP1 (% UT) [9]: 64 % UT

Substance: 1198260 (kT*kA*dA*dT*dA*dT*dT*dG*d[5mC]*dA*dA*eT*e[5mC]*eT*kG*kT; antisense) [Compound 1198260]
- YAP1 (% UTC) [7]: 106 % UTC

Substance: 1197256 (antisense kA*kT*kT*dT*mA*dG*dG*dA*dT*dG*d[5mC]*dA*dT*kG*kG*kT) [Compound 1197256]
- YAP1 (% UT) [8]: 31 % UT

Substance: 1197234 (antisense kT*kT*kA*dG*mA*dG*dT*dA*dT*dG*dT*dG*dG*k[5mC]*kA*kA) [Compound 1197234]
- YAP1 (% UT) [10]: 24 % UT
